The NIST ThermoML archive (doi:10.1016/j.jct.2010.01.003)

Conditions: Liquid; for speed of sound: Single path-length method; for mass density: Vibrating tube method

CCCCCCCCCCCCCCCC [hexadecane]
Conditions | mass density [kg/m3] | speed of sound [m/s]
290.65 K, 83 kPa | 775 | 1367.2
291.15 K, 83 kPa | 774.7 | 1365.3
291.65 K, 83 kPa | 774.4 | 1363.4
292.15 K, 83 kPa | 774 | 1361.5
292.65 K, 83 kPa | 773.6 | 1359.6
293.15 K, 83 kPa | 773.3 | 1357.7
298.15 K, 83 kPa | 769.8 | 1338.8
303.15 K, 83 kPa | 766.4 | 1320.2
308.15 K, 83 kPa | 762.9 | 1301.7
310 K, 1110 kPa | 761.74 | –
310 K, 2710 kPa | 762.85 | –
310 K, 5870 kPa | 765.01 | –
310 K, 10770 kPa | 768.25 | –
310 K, 15700 kPa | 771.38 | –
310 K, 20650 kPa | 774.41 | –
310 K, 25600 kPa | 777.3 | –
310 K, 34700 kPa | 782.46 | –
310 K, 36730 kPa | 783.55 | –
313.15 K, 83 kPa | 759.4 | 1283.4
318.15 K, 83 kPa | 756 | 1265.3
323.15 K, 83 kPa | 752.5 | 1247.4
328.15 K, 83 kPa | 749.1 | 1229.8
330 K, 1130 kPa | 748.39 | –
330 K, 2730 kPa | 749.66 | –
330 K, 5890 kPa | 752.03 | –
330 K, 10790 kPa | 755.61 | –
330 K, 15740 kPa | 759.04 | –
330 K, 20680 kPa | 762.35 | –
330 K, 25980 kPa | 765.74 | –
330 K, 36160 kPa | 771.9 | –
330 K, 38240 kPa | 773.11 | –
330 K, 45960 kPa | 777.44 | –
333.15 K, 83 kPa | 745.6 | 1212.3
338.15 K, 83 kPa | 742.2 | 1194.9
343.15 K, 83 kPa | 738.7 | 1177.9
350 K, 1020 kPa | 734.55 | –
350 K, 2630 kPa | 735.94 | –
350 K, 5790 kPa | 738.58 | –
350 K, 10710 kPa | 742.54 | –
350 K, 15650 kPa | 746.27 | –
350 K, 20600 kPa | 749.88 | –
350 K, 25560 kPa | 753.33 | –
350 K, 36140 kPa | 760.24 | –
350 K, 40130 kPa | 762.7 | –
370 K, 1030 kPa | 720.83 | –
370 K, 2620 kPa | 722.35 | –
370 K, 5780 kPa | 725.3 | –
370 K, 10710 kPa | 729.65 | –
370 K, 15660 kPa | 733.76 | –
370 K, 20610 kPa | 737.69 | –
370 K, 25580 kPa | 741.44 | –
370 K, 34010 kPa | 747.41 | –
370 K, 41340 kPa | 752.26 | –
390 K, 1040 kPa | 706.5 | –
390 K, 2630 kPa | 708.23 | –
390 K, 5790 kPa | 711.5 | –
390 K, 10690 kPa | 716.31 | –
390 K, 15650 kPa | 720.83 | –
390 K, 20600 kPa | 725.12 | –
390 K, 25550 kPa | 729.18 | –
390 K, 35160 kPa | 736.52 | –
390 K, 39900 kPa | 739.91 | –
390 K, 44320 kPa | 742.94 | –
390 K, 46900 kPa | 744.61 | –
410 K, 1080 kPa | 692.52 | –
410 K, 2680 kPa | 694.47 | –
410 K, 5830 kPa | 698.12 | –
410 K, 10750 kPa | 703.47 | –
410 K, 15700 kPa | 708.47 | –
410 K, 20630 kPa | 713.12 | –
410 K, 25570 kPa | 717.52 | –
410 K, 30420 kPa | 721.61 | –
410 K, 37220 kPa | 726.98 | –
410 K, 44820 kPa | 732.63 | –
410 K, 50700 kPa | 736.75 | –
430 K, 970 kPa | 677.73 | –
430 K, 2590 kPa | 679.9 | –
430 K, 5770 kPa | 684.04 | –
430 K, 10650 kPa | 689.93 | –
430 K, 15590 kPa | 695.44 | –
430 K, 20560 kPa | 700.57 | –
430 K, 25530 kPa | 705.37 | –
430 K, 30420 kPa | 709.84 | –
430 K, 39590 kPa | 717.56 | –
430 K, 44320 kPa | 721.28 | –
430 K, 48490 kPa | 724.39 | –
450 K, 960 kPa | 662.64 | –
450 K, 2560 kPa | 665.22 | –
450 K, 5750 kPa | 669.98 | –
450 K, 10620 kPa | 676.53 | –
450 K, 15590 kPa | 682.65 | –
450 K, 20560 kPa | 688.27 | –
450 K, 25530 kPa | 693.48 | –
450 K, 30800 kPa | 698.66 | –
450 K, 39150 kPa | 706.2 | –
450 K, 43400 kPa | 709.8 | –
450 K, 45310 kPa | 711.32 | –
470 K, 1070 kPa | 648.42 | –
470 K, 2660 kPa | 651.24 | –
470 K, 5770 kPa | 656.4 | –
470 K, 10730 kPa | 663.85 | –
470 K, 15690 kPa | 670.57 | –
470 K, 20640 kPa | 676.69 | –
470 K, 25530 kPa | 682.28 | –
470 K, 30470 kPa | 687.53 | –
470 K, 38870 kPa | 695.7 | –
470 K, 42790 kPa | 699.27 | –
470 K, 47790 kPa | 703.6 | –
